Assay results taken from patent US20050106305A1, “Beverage compositions comprising monatin and methods of making same” (Cargill, Inc., priority 2003, published 2005).
Like-named read-outs stand apart in the source and are kept apart here. Where a SMILES comes first, the peptide text is derived from it.

Key:
[1] = Taste profiling of lemon/lime carbonates and colas; format: in vivo; settings: HFCS 10%, aspartame 500 ppm, sucralose 200 ppm, blends 30.8 ppm/5.0%; for Average Score: score 1, poor-5, good, sucrose 10%
Protocol: Cola and lemon/lime beverages were prepared using the following formulations and sweetened with sucrose, HFCS (55% fructose), aspartame, sucralose, monatin (racemic mix described in Example 14), monatin/sucrose, or monatin/HFCS. One part of syrup was added to 5.5 parts carbonated water and evaluated.
Assessments were carried out ‘double blind’ by a panel of trained tasters. The sucrose-sweetened product was identified as the control and all other products randomly coded. Panelists were asked to assess the randomly coded sample relative to the control for the following attributes:
Panelists also were asked assign a score (1; poor-5; good) for the quality of the sweetener system. A summary of the comments generated together with the average score awarded is presented in Tables 12 and 13 for lemon/lime carbonates and colas, respectively. […] Blends of monatin/carbohydrate rated higher. In the cola, monatin was similar to aspartame.

[2] = Sensory evaluation of soft drinks (lemon/lime, orangeade, cola); format: in vivo; settings: Lemon/lime soft drink; aspartame 500 ppm, sucralose 200 ppm, R,R monatin 42 ppm
Protocol: Beverages (cola, lemon-lime and orange) were formulated and sweetened with aspartame, sucralose or R,R monatin. Qualitative evaluation was carried out.
The term “throw” refers to dilution in water. For example, a throw of “1+4” means 1 part concentrate formulation to 4 parts water. Thus, if a concentrate formulation includes 0.021% wt/vol (i.e., 210 ppm) of R,R monatin, for example, a throw of 1+4 makes a diluted beverage containing 42 ppm (210 ppm/5) R,R monatin.
Final ready-to-drink beverages (after throw) contained sweetener concentrations as follows:
Evaluation of these soft drinks was carried out by a panel (n=6) of assessors who evaluated each set of drinks on separate tasting occasions.

[3] = Sensory stability of monatin and aspartame at pH 2.5, 3.0, 4.0 at 40° C.; format: physicochemical; settings: for Rate constant (k) of sweetness loss / half-life: pseudo-first order assumed; for SEV / Retention of Sweetness: stored 40° C., monatin ~55 ppm, aspartame 400 ppm; for half-life: phosphate/citrate buffer, read-out: Half-life (t½) of sweetness loss (converted)
Protocol: The sensory stability of monatin solutions prepared at pH 2.5, 3.0 and 4.0 and stored at 40° C. was monitored for 100 days. Loss of sweetness from these solutions was compared with the losses of sweetness from aspartame solutions prepared and stored under identical conditions.
The sensory stability of monatin (8% SEV, ˜55 ppm, synthetic blend containing approximately 96% of the 2R,4R/2S, 4S enantiometric pair and 4% of the 2R,4S/2S,4R enantiometric pair) in phosphate/citrate buffers having a pH of 2.5, 3.0, and 4.0 was examined after storage at 40° C. The stability of monatin was compared to that of aspartame (400 ppm) in the same buffers. Three sucrose reference solutions were prepared in the same phosphate/citrate buffers as the monatin and aspartame solutions. All prepared solutions were stored in the dark.
Buffer compositions: pH 2.5 Phosphoric acid (75% solution) 0.127% (w/v) Tri-sodium citrate monohydrate 0.005% (w/v) • pH 3.0 Phosphoric acid (75% solution) 0.092% (w/v) Tri-sodium citrate monohydrate 0.031% (w/v) • pH 4.0 Phosphoric acid (75% solution) 0.071% (w/v) Tri-sodium citrate monohydrate 0.047% (w/v)
The sweetness of each sweetener relative to sucrose was assessed in duplicate by a panel (n=8) of trained sensory evaluators experienced in the sweetness estimation procedure. All samples (in the same buffers) were served in duplicate at a temperature of 22° C.±1° C. Monatin (test) solutions, coded with 3 digit random number codes were presented individually to panelists, in random order. Sucrose reference standards, ranging from 4.0-10.0% (w/v) sucrose, increasing in steps of 0.5% (w/v) sucrose were also provided. Panelists were asked to estimate sweetness by comparing the sweetness of the test solution to the sucrose standards. This was carried out by taking 3 sips of the test solution, followed by a sip of water, followed by 3 sips of sucrose standard followed by a sip of water, etc. Panelists were encouraged to estimate the sweetness to one decimal place, e.g., 6.8, 8.5. A five minute rest period was imposed between evaluating the test solutions. Panelists were also asked to rinse well and eat a cracker to reduce any potential carry over effects.
If a pseudo-first order breakdown reaction is assumed, a plot of logn percentage retention versus time (logn%RTN v. t) allows estimation of the half-life (t½) and rate constant (k) of sweetness loss under any given set of conditions. In so doing, the kinetics of monatin and aspartame sweetness loss may be summarized as follows in Table 25.

[4] = cola, sucrose 10% (control), monatin 80 ppm
[5] = lemon/lime carbonate, sucrose 10% (control), monatin 67 ppm

Sweetness Retained ([3]; after 100 days storage at pH 2.5 at 40° C.): 11%
Sweetness Retained ([3]; after 100 days storage at pH 3.0 at 40° C.): 31%
Sweetness Retained ([3]; after 100 days storage at pH 4.0 at 40° C.): 58%
Rate constant (k) of sweetness loss ([3]; pH 2.5, 40° C.): 0.013 day⁻¹
Retention of Sweetness ([3]; pH 2.5 buffer, day 1): 94.0%
Retention of Sweetness ([3]; pH 2.5 buffer, day 2): 92.6%
Retention of Sweetness ([3]; pH 2.5 buffer, day 3): 89.9%
Retention of Sweetness ([3]; pH 2.5 buffer, day 4): 85.7%
Retention of Sweetness ([3]; pH 2.5 buffer, day 7): 81.9%
Retention of Sweetness ([3]; pH 2.5 buffer, day 8): 81.5%
Retention of Sweetness ([3]; pH 2.5 buffer, day 9): 81.3%
Retention of Sweetness ([3]; pH 2.5 buffer, day 11): 79.8%
Retention of Sweetness ([3]; pH 2.5 buffer, day 50): 57.1%
Retention of Sweetness ([3]; pH 2.5 buffer, day 100): 10.9%
Rate constant (k) of sweetness loss ([3]; pH 3.0, 40° C.): 0.009 day⁻¹
Retention of Sweetness ([3]; pH 3.0 buffer, day 1): 96.5%
Retention of Sweetness ([3]; pH 3.0 buffer, day 2): 96.1%
Retention of Sweetness ([3]; pH 3.0 buffer, day 3): 92.3%
Retention of Sweetness ([3]; pH 3.0 buffer, day 4): 89.9%
Retention of Sweetness ([3]; pH 3.0 buffer, day 7): 86.3%
Retention of Sweetness ([3]; pH 3.0 buffer, day 8): 82.9%
Retention of Sweetness ([3]; pH 3.0 buffer, day 9): 83.1%
Retention of Sweetness ([3]; pH 3.0 buffer, day 11): 81.5%
Retention of Sweetness ([3]; pH 3.0 buffer, day 50): 65.9%
Retention of Sweetness ([3]; pH 3.0 buffer, day 100): 30.8%
Rate constant (k) of sweetness loss ([3]; pH 4.0, 40° C.): 0.005 day⁻¹
Retention of Sweetness ([3]; pH 4.0 buffer, day 3): 95.1%
Retention of Sweetness ([3]; pH 4.0 buffer, day 8): 87.8%
Retention of Sweetness ([3]; pH 4.0 buffer, day 11): 84.8%
Retention of Sweetness ([3]; pH 4.0 buffer, day 17): 81.0%
Retention of Sweetness ([3]; pH 4.0 buffer, day 24): 82.4%
Retention of Sweetness ([3]; pH 4.0 buffer, day 50): 74.5%
Retention of Sweetness ([3]; pH 4.0 buffer, day 100): 57.7%
half-life ([3]; pH 2.5, 40° C.): 55 days
half-life ([3]; pH 3.0, 40° C.): 75 days
half-life ([3]; pH 4.0, 40° C.): 140 days
SMILES: COC(=O)[C@H](Cc1ccccc1)NC(=O)[C@@H](N)CC(=O)O [Aspartame, aspartame] (H-Asp-Phe-OMe)
Aftertaste [1, 4]: Lingering sweetness
Flavor Profile [1, 4]: Sweet flavor, flatter
Mouthfeel [1, 4]: Thinner mouthfeel
Sweetness Profile [1, 4]: Delayed sweetness
Flavor Profile [1, 5]: Slightly lacking upfront.
Sweetness Profile [1, 5]: Sweetness onset quite
Average Score ([1]; cola, monatin 80 ppm): 3.3
Average Score ([1]; lemon/lime carbonate, monatin 67 ppm): 4.0
Comments (sensory evaluation) [2]: Balanced sweetness/acidity profile. Very
SEV ([3]; pH 2.5 buffer, day 0): 7.34 % sucrose
SEV ([3]; pH 2.5 buffer, day 1): 6.90 % sucrose
SEV ([3]; pH 2.5 buffer, day 2): 6.80 % sucrose
SEV ([3]; pH 2.5 buffer, day 3): 6.60 % sucrose
SEV ([3]; pH 2.5 buffer, day 4): 6.29 % sucrose
SEV ([3]; pH 2.5 buffer, day 7): 6.01 % sucrose
SEV ([3]; pH 2.5 buffer, day 8): 5.98 % sucrose
SEV ([3]; pH 2.5 buffer, day 9): 5.97 % sucrose
SEV ([3]; pH 2.5 buffer, day 11): 5.86 % sucrose
SEV ([3]; pH 2.5 buffer, day 50): 4.19 % sucrose
SEV ([3]; pH 2.5 buffer, day 100): 0.80 % sucrose
SEV ([3]; pH 3.0 buffer, day 0): 7.15 % sucrose
SEV ([3]; pH 3.0 buffer, day 1): 6.90 % sucrose
SEV ([3]; pH 3.0 buffer, day 2): 6.87 % sucrose
SEV ([3]; pH 3.0 buffer, day 3): 6.60 % sucrose
SEV ([3]; pH 3.0 buffer, day 4): 6.43 % sucrose
SEV ([3]; pH 3.0 buffer, day 7): 6.17 % sucrose
SEV ([3]; pH 3.0 buffer, day 8): 5.93 % sucrose
SEV ([3]; pH 3.0 buffer, day 9): 5.94 % sucrose
SEV ([3]; pH 3.0 buffer, day 11): 5.83 % sucrose
SEV ([3]; pH 3.0 buffer, day 50): 4.71 % sucrose
SEV ([3]; pH 3.0 buffer, day 100): 2.20 % sucrose
SEV ([3]; pH 4.0 buffer, day 0): 7.10 % sucrose
SEV ([3]; pH 4.0 buffer, day 3): 6.75 % sucrose
SEV ([3]; pH 4.0 buffer, day 8): 6.23 % sucrose
SEV ([3]; pH 4.0 buffer, day 11): 6.02 % sucrose
SEV ([3]; pH 4.0 buffer, day 17): 5.75 % sucrose
SEV ([3]; pH 4.0 buffer, day 24): 5.85 % sucrose
SEV ([3]; pH 4.0 buffer, day 50): 5.29 % sucrose
SEV ([3]; pH 4.0 buffer, day 100): 4.10 % sucrose
